Reference: patent US20220169654A1, “New Organic Compounds” (Servier Pharmaceuticals LLC, priority 2020, published 2022)

Assays:
[1] = system: SAM in HCT116 human colon carcinoma cell line with MTAP gene deleted (MTAP −/−); assay: Cellular assay of target engagement (SAM), LC-MS/MS, 72 hrs; format: cell-based; conditions: HCT-116, IC50 bin with Max Inh., read-out: Cell 72 h SAM Inhibition (MTAP −/−)
How it was run: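 MTAP-deleted HCT116 cells plated 24 h, then given 10-point 3-fold dilutions for 72 hrs at 37° C. Intracellular SAM extracted in cold 80% methanol with 1M acetic acid and d3-SAM standard, quantified by LC-MS/MS (MRM m/z 399.2→250.1); IC50 derived.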

HCT116 MTAP−/− = assay: Inhibition of cellular proliferation, 4 days, Cell Titer Glo, HCT116 MTAP−/−; format: cell-based; conditions: Homo sapiens, HCT-116, 96 h, IC50 bin with Max Inh., read-out: 4 Day Relative Growth Inhibition (MTAP −/−)
How it was run: (§1)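 Isogenic HCT116 pair differing only in MTAP status, plated 24 h before treatment with 10-point 3-fold dilutions; 4 days at 37° C./5% CO2. Cell Titer Glo luminescence, blank-subtracted and normalised to 0.2% DMSO control, gives percentage proliferation vs log molar concentration for IC50.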

MAT2A homodimer = biological target: T1, MAT2A homodimer (Homo sapiens, UniProt P31153); assay: MAT2A inhibition (biochemical, liberated phosphate, PiColorLock Gold); conditions: recombinant MAT2A homodimer; IC50 bin with Max Inh.; read-out: Enzyme Inhibition Bin
T1 construct: inferred from Ni sepharose purification with imidazole elution; made in house; host or cells: Sf9 insect cells, baculovirus (Bac to Bac, pFASTBAC1)
How it was run: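 Baculovirus/Sf9-expressed, Ni-purified MAT2A (4 μg/mL) preincubated with compound 60 min at 25 °C in Tris pH 8.0/KCl/MgCl2 buffer. Reaction started with 500 μM ATP and 400 μM L-methionine (substrate-mix concentrations), run 60 min at 25 °C. Phosphate measured colorimetrically against a phosphate standard curve to give IC50.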

HCT116 MTAP+/+ = assay: Inhibition of cellular proliferation, 4 days, Cell Titer Glo, HCT116 MTAP+/+; format: cell-based; conditions: Homo sapiens, HCT-116, 96 h, IC50 bin with Max Inh., read-out: 4 Day Relative Growth Inhibition (MTAP +/+)
How it was run: as §1

T1 sequence (P31153 whole entry): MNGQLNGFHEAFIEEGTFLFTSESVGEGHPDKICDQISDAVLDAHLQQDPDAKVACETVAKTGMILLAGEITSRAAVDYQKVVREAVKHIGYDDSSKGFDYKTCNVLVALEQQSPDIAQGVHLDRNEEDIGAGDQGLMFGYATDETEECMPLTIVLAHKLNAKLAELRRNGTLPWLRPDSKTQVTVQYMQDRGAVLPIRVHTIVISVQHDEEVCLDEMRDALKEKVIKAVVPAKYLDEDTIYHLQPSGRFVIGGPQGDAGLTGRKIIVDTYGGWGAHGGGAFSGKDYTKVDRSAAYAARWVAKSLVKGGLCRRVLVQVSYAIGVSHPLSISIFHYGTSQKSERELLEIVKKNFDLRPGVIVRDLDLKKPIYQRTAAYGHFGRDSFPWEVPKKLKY

SMILES | IC50 [1] | IC50 (HCT116 MTAP−/−) | IC50 (MAT2A homodimer) | IC50 (HCT116 MTAP+/+)
Cn1cc2cc(-n3nc4ccn(CC5CC5)c4c(-c4ccc(C5CC5)nc4)c3=O)ccc2n1 [Example 106, 5-(cyclopropylmethyl)-4-(6-cyclopropylpyridin-3-yl)-2-(2-methyl-2H-indazol-5-yl)-2,5-dihydro-3H-pyrrolo[3,2-c]pyridazin-3-one] | < 100 nM | < 100 nM | < 100 nM | > 1000 nM
Cn1cc2cc(-n3nc4c(C#N)cn(CC5CCC5)c4c(-c4ccc(C5CC5)nc4)c3=O)ccc2n1 [Example 159, 5-(cyclobutylmethyl)-4-(6-cyclopropylpyridin-3-yl)-2-(2-methyl-2H-indazol-5-yl)-3-oxo-3,5-dihydro-2H-pyrrolo[3,2-c]pyridazine-7-carbonitrile] | < 100 nM | 100 to 1000 nM | < 100 nM | > 1000 nM
Cn1cc2cc(-n3nc4c(C#N)cn(CC5CC5)c4c(-c4ccc(C5(C#N)CC5)nc4)c3=O)ccc2n1 [Example 120, 4-(6-(1-cyanocyclopropyl)pyridin-3-yl)-5-(cyclopropylmethyl)-2-(2-methyl-2H-indazol-5-yl)-3-oxo-3,5-dihydro-2H-pyrrolo[3,2-c]pyridazine-7-carbonitrile] | 100 to 1000 nM | > 1000 nM | < 100 nM | > 1000 nM
CNC(=O)c1cn(CC2CC2)c2c(-c3ccc(C4CC4)cc3)c(=O)n(-c3ccc4nn(C)cc4c3)nc12 [Example 167, 5-(cyclopropylmethyl)-4-(4-cyclopropylphenyl)-N-methyl-2-(2-methyl-2H-indazol-5-yl)-3-oxo-3,5-dihydro-2H-pyrrolo[3,2-c]pyridazine-7-carboxamide] | < 100 nM | < 100 nM | < 100 nM | < 100 nM
COc1ccc(-c2c(=O)n(-c3ccc4nn(C)cc4c3)nc3ncn(CC4CC4)c23)cc1 [Example 193, 5-(cyclopropylmethyl)-4-(4-methoxyphenyl)-2-(2-methyl-2H-indazol-5-yl)-2,5-dihydro-3H-imidazo[4,5-c]pyridazin-3-one] | < 100 nM | < 100 nM | < 100 nM | > 1000 nM
O=c1c(-c2ccc(OC(F)F)cc2)c2c(ccn2CC2CC2)nn1-c1cn[nH]c1 [Example 231, 5-(cyclopropylmethyl)-4-(4-(difluoromethoxy)phenyl)-2-(1H-pyrazol-4-yl)-2,5-dihydro-3H-pyrrolo[3,2-c]pyridazin-3-one] | 100 to 1000 nM | 100 to 1000 nM | < 100 nM | > 1000 nM
Cc1ccc(-c2c(=O)n(-c3ccc4nc(C)n(C)c4c3)nc3c(C#N)cn(CC4CC4)c23)cn1 [Example 151, 5-(cyclopropylmethyl)-2-(1,2-dimethyl-1H-benzo[d]imidazol-6-yl)-4-(6-methylpyridin-3-yl)-3-oxo-3,5-dihydro-2H-pyrrolo[3,2-c]pyridazine-7-carbonitrile] | < 100 nM | < 100 nM | < 100 nM | > 1000 nM
[2H]C([2H])([2H])Oc1ccc(-c2c(=O)n(-c3ccc4nn(C)cc4c3)nc3c(C(N)=O)cn(CC4CC4)c23)cc1 [Example 173, 5-(cyclopropylmethyl)-4-(4-(methoxy-d3)phenyl)-2-(2-methyl-2H-indazol-5-yl)-3-oxo-3,5-dihydro-2H-pyrrolo[3,2-c]pyridazine-7-carboxamide] | < 100 nM | < 100 nM | < 100 nM | > 1000 nM
Cn1cc2cc(-n3nc4ncn(CC5CC5)c4c(-c4ccc(OC(F)F)cc4)c3=O)ccc2n1 [Example 186, 5-(cyclopropylmethyl)-4-[4-(difluoromethoxy)phenyl]-2-(2-methyl-2H-indazol-5-yl)-2H,3H,5H-imidazo[4,5-c]pyridazin-3-one] | < 100 nM | < 100 nM | < 100 nM | 100 to 1000 nM
Cn1cc2cc(-n3nc4c(C(=O)O)cn(CC5CC5)c4c(-c4ccc(C5CC5)nc4)c3=O)ccc2n1 [Example 163, 5-(cyclopropylmethyl)-4-(6-cyclopropylpyridin-3-yl)-2-(2-methyl-2H-indazol-5-yl)-3-oxo-3,5-dihydro-2H-pyrrolo[3,2-c]pyridazine-7-carboxylic acid] | > 1000 nM | 100 to 1000 nM | < 1000 nM | > 1000 nM

The next lines start with the values.

IC50 [1] | IC50 (HCT116 MTAP−/−) | IC50 (MAT2A homodimer) | IC50 (HCT116 MTAP+/+) | SMILES
> 1000 nM | > 1000 nM | < 100 nM | > 1000 nM | Cn1cc2cc(-n3nc4c(C#N)cn(CC5CC5)c4c(-c4ccc(C(F)(F)F)nc4)c3=O)ccc2n1 [Example 119, 5-(cyclopropylmethyl)-2-(2-methyl-2H-indazol-5-yl)-3-oxo-4-(6-(trifluoromethyl)pyridin-3-yl)-3,5-dihydro-2H-pyrrolo[3,2-c]pyridazine-7-carbonitrile]
100 to 1000 nM | 100 to 1000 nM | < 100 nM | > 1000 nM | Cn1cc2cc(-n3nc4nnn(CC5CC5)c4c(-c4ccc(C5CC5)cc4)c3=O)ccc2n1 [Example 209, 1-(cyclopropylmethyl)-7-(4-cyclopropylphenyl)-5-(2-methyl-2H-indazol-5-yl)-1,5-dihydro-6H-[1,2,3]triazolo[4,5-c]pyridazin-6-one]
< 100 nM | < 100 nM | < 100 nM | > 1000 nM | Cn1cc2cc(-n3nc4c(CC#N)cn(CC5CC5)c4c(-c4ccc(C5CC5)nc4)c3=O)ccc2n1 [Example 259, 2-(5-(cyclopropylmethyl)-4-(6-cyclopropylpyridin-3-yl)-2-(2-methyl-2H-indazol-5-yl)-3-oxo-3,5-dihydro-2H-pyrrolo[3,2-c]pyridazin-7-yl)acetonitrile]
100 to 1000 nM | < 100 nM | < 100 nM | > 1000 nM | Cn1cc2cc(-n3nc4c(C#N)cn(CC5CC5)c4c(-c4ccc([C@H]5CC5(F)F)nc4)c3=O)ccc2n1 [Example 253, (R)-5-(cyclopropylmethyl)-4-(6-(2,2-difluorocyclopropyl)pyridin-3-yl)-2-(2-methyl-2H-indazol-5-yl)-3-oxo-3,5-dihydro-2H-pyrrolo[3,2-c]pyridazine-7-carbonitrile]
100 to 1000 nM | < 100 nM | < 100 nM | > 1000 nM | CC(C)c1ccc(-c2c(=O)n(-c3ccc4nn(C)cc4c3)nc3ccn(CC4CC4)c23)cn1 [Example 129, 5-(cyclopropylmethyl)-4-(6-isopropylpyridin-3-yl)-2-(2-methyl-2H-indazol-5-yl)-2,5-dihydro-3H-pyrrolo[3,2-c]pyridazin-3-one]
< 100 nM | < 100 nM | < 100 nM | < 100 nM | Cn1cc2cc(-n3nc4c(C#N)cn(CC5CC5)c4c(-c4ccc(Cl)cc4)c3=O)ccc2n1 [Example 139, 4-(4-chlorophenyl)-5-(cyclopropylmethyl)-2-(2-methyl-2H-indazol-5-yl)-3-oxo-3,5-dihydro-2H-pyrrolo[3,2-c]pyridazine-7-carbonitrile]
< 100 nM | < 100 nM | < 100 nM | 100 to 1000 nM | Cn1cc2cc(-n3nc4cnn(CC5CC5)c4c(-c4ccc(Cl)cc4)c3=O)ccc2n1 [Example 221, 7-(4-chlorophenyl)-1-(cyclopropylmethyl)-5-(2-methyl-2H-indazol-5-yl)-1,5-dihydro-6H-pyrazolo[4,3-c]pyridazin-6-one]
< 100 nM | < 100 nM | < 100 nM | 100 to 1000 nM | Cn1cc2cc(-n3nc4ccn(CC5CC5)c4c(-c4ccc(C(F)F)nc4)c3=O)ccc2n1 [Example 123, 5-(cyclopropylmethyl)-4-(6-(difluoromethyl)pyridin-3-yl)-2-(2-methyl-2H-indazol-5-yl)-2,5-dihydro-3H-pyrrolo[3,2-c]pyridazin-3-one]
100 to 1000 nM | 100 to 1000 nM | < 100 nM | > 1000 nM | Cn1cc2cc(-n3nc4c(C#N)cn(CC5CC5)c4c(-c4ccc(C5(O)CC5)nc4)c3=O)ccc2n1 [Example 256, 5-(cyclopropylmethyl)-4-(6-(1-hydroxycyclopropyl)pyridin-3-yl)-2-(2-methyl-2H-indazol-5-yl)-3-oxo-3,5-dihydro-2H-pyrrolo[3,2-c]pyridazine-7-carbonitrile]
< 100 nM | < 100 nM | < 100 nM | 100 to 1000 nM | Cc1ccc(-c2c(=O)n(-c3ccc4nn(C)cc4c3)nc3c(C(F)(F)F)cn(CC4CC4)c23)cn1 [Example 258, 5-(cyclopropylmethyl)-2-(2-methyl-2H-indazol-5-yl)-4-(6-methylpyridin-3-yl)-7-(trifluoromethyl)-2,5-dihydro-3H-pyrrolo[3,2-c]pyridazin-3-one]
100 to 1000 nM | 100 to 1000 nM | < 100 nM | 100 to 1000 nM | Cn1nc2ccc(-n3nc4c(C(F)(F)F)cn(CC5CC5)c4c(-c4ccc(C5CC5)nc4)c3=O)cc2c1C(F)(F)F [Example 242, 5-(cyclopropylmethyl)-4-(6-cyclopropylpyridin-3-yl)-2-(2-methyl-3-(trifluoromethyl)-2H-indazol-5-yl)-7-(trifluoromethyl)-2,5-dihydro-3H-pyrrolo[3,2-c]pyridazin-3-one]
